Like-named read-outs stand apart in the source and are kept apart here.
Columns and labels:
[1] = rabbit, in vivo
Experimental: One eye of each of six rabbits was implanted at the pars plana with methotrexate (MTX)-lactic acid microspheres and in one eye of another six rabbits with hydrocortisone, acetate-lactic acid microspheres.
A 40% (by weight) mixture of MIX and hydrocortisone with polylactate polymer were solubilized in chloroform and ethanol (Table 1). Coacervation into microcapsules tool place in 500 ml of a 5% polyvinyl alcohol aqueous solution with moderate to high speed stirring. Evaporation was performed under light vacuum with constant stirring for an additional 8 hrs. The resulting microspheres measuring 0.1 to 0.5 mm were selected and dried in vacuum for an additional 24 to 48 hours. Approximately 25 microcapsules were implanted at the pars plana.

[2] = rabbit, in vivo; remark: listed apart in the source
Experimental: A 40% (by weight) of MTX and hydrocortisone and polylactate polymer were mixed under moltened conditions (Table 2). The resulting mixture was plated into a thin layer of approximately 0.4 to 0.5 mm in thickness and cooled overnight at room temperature. A plaque measuring approximately 3×4 mm was fashioned from the layer and was surgically placed into the pars plana.
Plaques of MTX and hydrocortsone were given to one eye of each of 3 animals at the pars plana and over the vitreous base following scleral resection.

[3] = In vitro drug release from polyurethane sheets; format: physicochemical
Experimental: After drying of the mixtures, implants were then cut from the resulting sheets of drug-filled polymer affixed to the release liner. The drug-release behavior of the polymeric, drug-containing sheets was then tested. The release liner was removed from an implant sheet and a weighed sample of the sheet added to a solution containing four parts by weight ethanol and six parts by weight of deionized water at 37° C. with slow stirring. The appearance of the dissolved drug was followed as a function of time by spectrophotometry.

C[C@]12CCC(=O)C=C1CC[C@@H]1[C@@H]2[C@@H](O)C[C@@]2(C)[C@H]1CC[C@]2(O)C(=O)CO [Hydrocortisone, hydrocortisone]
0 ng/mL: drug concentration, RE PC ([1]; 10080 min) | drug concentration, RE PC ([1]; 20160 min) | drug concentration, RE PC ([1]; 30240 min) | drug concentration, RE PC ([1]; 40320 min) | drug concentration, RE PC ([1]; 50400 min) | drug concentration, RE PC ([1]; 60480 min) | drug concentration, RE PC ([2]; 43200 min) | drug concentration, RE PC ([2]; 86400 min) | drug concentration, RE PC ([2]; 129600 min)

CN(Cc1cnc2nc(N)nc(N)c2n1)c1ccc(C(=O)N[C@@H](CCC(=O)O)C(=O)O)cc1 [MTX, methotrexate]
0 ng/mL: drug concentration, LE PC ([1]; 10080 min) | drug concentration, LE PC ([1]; 20160 min) | drug concentration, LE PC ([1]; 30240 min) | drug concentration, LE PC ([1]; 40320 min) | drug concentration, LE PC ([1]; 50400 min) | drug concentration, LE PC ([1]; 60480 min) | drug concentration, LE PC ([2]; 43200 min) | drug concentration, LE PC ([2]; 86400 min) | drug concentration, LE PC ([2]; 129600 min)

C[C@@H]1C[C@H]2[C@@H]3CCC4=CC(=O)C=C[C@]4(C)[C@@]3(F)[C@@H](O)C[C@]2(C)[C@@]1(O)C(=O)CO [dexamethasone]
more than 50%: drug released from sheets ([3]; Example 1 polyurethane/dexamethasone sheet, ethanol/deionized water 4:6 by weight, 37° C., within 4 hrs)

Nc1nc(O)c2ncn(COC(CO)CO)c2n1 [gancyclovir]
more than 60%: drug released from sheets ([3]; Example 2 polyurethane/gancyclovir sheet, in vitro as described above, after the first 2 hrs)
